Values quoted from earlier work in article PMC12715049 (Journal of Molecular Medicine (Berlin, Germany), 2025).

Tested on: mHTT aggregates
Conditions: read-out: IC50, binding to mHTT aggregates; radio-binding assays

- IC50: 1.3 ± 1 nM
SMILES: COc1ccc(COc2ccc3oc(-c4ccc(=O)n(C)n4)nc3c2)nc1 [CHDI-180R]
